Data taken from patent US20260015356A1, “ADENOSINE RECEPTOR ANTAGONISTS AND USES THEREOF” (Teon Therapeutics, Inc., priority 2022, published 2026).

Tested on: MC38 tumor model
Experiment: MC38 tumor model (fibrosis)
Assay type: in vivo
Details: no dose or method printed

`CCCn1c(=O)c2c(nc(-c3cnn(Cc4cccc(C(F)(F)F)c4)c3)n2C(C)=O)n(CC)c1=O` [Compound 1, 7-acetyl-3-ethyl-1-propyl-8-(1-(3-(trifluoromethyl)benzyl)-1H-pyrazol-4-yl)-3,7-dihydro-1H-purine-2,6-dione] was tested, and the “fibrosis in a MC38 tumor model” value was “reduces fibrosis”.
